Measured values as given in patent US20090156645A1, “Method for Increasing the Susceptibility of Peptide Deformylase Inhibitors by Using Efflux Pump Inhibitors” (priority 2004, published 2009).
In brackets after ≈: the same amount, converted by molar mass. Read-outs that look alike come from different tables or passages of the source. Where a SMILES comes first, the peptide text is derived from it. The star is where a group is joined. βNA = c1ccc2cc(N*)ccc2c1

Key:
E. coli = experiment: MIC of LBM415 in E. coli with or without AcrAB-TolC pump function; type: cell-based; conditions: Escherichia coli
Description: (§1) For E. coli testing, strain NB27006 is used. This strain is deficient in its native AcrAB pump (described in H Okusu et al. J. Bacteriol. 1996 178: 306-308) and is a suitable host for cloning the H. influenzae acrAB pump genes.
(§2) E. coli: MIC determines are conducted as described above except using Mueller-Hinton test medium.
12). The acrAB containing product is cloned into Topo PCR2.1 (Invitrogen) and transformed into Top10 competent cells (Invitrogen). An insert bearing plasmid is isolated and sequenced to ensure that mutations are not introduced during PCR and cloning. This plasmid is then transformed into E. coli strain NB27006, which lacks its native AcrAB-ToIC pump function.
To further examine this, the H. influenzae acrAB genes are cloned and used to complement, in trans, an AcrAB pump deficiency in E. coli strain NB27006.

H. influenzae = experiment: microbe, parasite or virus in culture; type: cell-based, Haemophilus influenzae; conditions: for effect of inactivation of HI1462 on susceptibility: H. influenzae NB65044; for MIC: Haemophilus influenzae; for effect of insertional inactivation of acrB on susceptibility: laboratory strain NB65044
Description: L-broth or L-agar (Difco) is used for routine growth of Escherichia coli (E. coli). Chocolate agar plates (Remel) are used for routine growth of H. influenzae. Brain heart infusion broth (Remel) supplemented with 10 μg/mL of β-NAD (Fluka) and 10 μg/mL hemin/vitamin K solution (sBHI) (Remel) is used for liquid broth cultivation of H. influenzae. For induction of natural competence in H. influenzae, nutritional downshift is induced using M-IV medium as described previously. See Poje and Redfield, Methods Mol Med, Vol. 71, No., pp. 57-70 (2003). Kanamycin is added to growth media at 50 μg/mL (E. coli) or 5 μg/mL (H. influenzae) as required.
Antibiotic and substrate MICs are determined by broth microdilution using 2-fold dilution in HTM in accordance with the procedures established by the National Committee for Clinical Laboratory Standards (NCCLS). See NCCLS, Approved standard M7-A5, Wayne, Pa. (2003). PDF inhibitors are synthesized at the Novartis Institutes for BioMedical Research, Cambridge, Mass. All remaining antibiotics are obtained from Sigma (St. Louis, Mo.).

[1] = tested on: H. influenzae NB65044-CDS0011; experiment: Potentiation of antibiotic MIC by efflux inhibitor (two-axis 96-well plates); type: cell-based, Haemophilus influenzae; conditions: H. influenzae overexpressing AcrAB; data not shown
Description: H. influenzae NB65044-CDS0011 is used for H. influenzae testing. This strain has increased pump expression which is thought to result in more sensitive detection of pump inhibition.
H. influenzae: MIC determinations are conducted in 96 well sterile plates with a range of LBM415 along one axis and range of efflux inhibitor along the other axis. Medium used is HTM (Remel). Inoculum is set to approximately […] bacteria per well using the BBL prompt system.

[2] = tested on: E. coli strain NB27006 complemented with H. influenzae acrAB genes; experiment: Potentiation of antibiotic MIC by efflux inhibitor in E. coli carrying the H. influenzae acrAB genes; type: cell-based, Escherichia coli; conditions: E. coli complemented in trans with H. influenzae acrAB genes
Description: as §1, §2
Genes encoding H. influenzae AcrAB pump components are PCR amplified from NB65044 genomic DNA using the primers acrA prom F1 (5′-AATTA[…]-3′) (SEQ ID NO. 11) and acrBR3 […] 5′-[…]-3″) (SEQ ID NO. 12). The acrAB containing product is cloned into Topo PCR2.1 (Invitrogen) and transformed into Top10 competent cells (Invitrogen). An insert bearing plasmid is isolated and sequenced to ensure that mutations are not introduced during PCR and cloning. This plasmid is then transformed into E. coli strain NB27006, which lacks its native AcrAB-ToIC pump function.
Since efflux pumps are impacted by such factors as outer membrane permeability, and E. coli is thought to have a less permeable outer membrane than H. influenzae (possibly accounting for increased impact of efflux on drug resistance), it has reasoned that the detection of H. influenzae AcrAB pump inhibition might be more sensitive in an E. coli background. […] This is interesting in that the native E. coli AcrAB-ToIC pump does extrude tetracycline.

[3] = strain NB65016 (clinical isolate), read-out: MIC
[4] = strain NB65016-CDS0004, knockout acrB
[5] = strain NB65027 (clinical isolate), read-out: MIC
[6] = strain NB65027-CDS0003, knockout HI1462
[7] = strain NB65027-CDS0021, knockout acrB
[8] = strain NB65044 (Rd KW20, parent laboratory strain), read-out: MIC
[9] = strain NB65044-CDS0001 (NB65044 acrB::Km)
[10] = strain NB65044-CDS0020 (Table 1: NB65044 acrB::Km)
[11] = strain NB65051 (clinical isolate), read-out: MIC
[12] = strain NB65051-CDS0002, knockout acrB
[13] = strain NB65051-CDS0022, knockout HI1462
[14] = strain NB65063 (clinical isolate), read-out: MIC
[15] = strain NB65063-CDS0005, knockout acrB
[16] = strain NB65069 (clinical isolate), read-out: MIC
[17] = strain NB65069-CDS0007, knockout acrB
[18] = strain NB65076 (clinical isolate), read-out: MIC
[19] = strain NB65076-CDS0006, knockout acrB

Compound	effect of inactivation of HI1462 on susceptibility (H. influenzae)	MIC (H. influenzae; [3]) [µg/mL]	MIC (H. influenzae; [4]) [µg/mL]	MIC (H. influenzae; [5]) [µg/mL]	MIC (H. influenzae; [6]) [µg/mL]	MIC (H. influenzae; [7]) [µg/mL]	MIC (H. influenzae; [8]) [µg/mL]	MIC (H. influenzae; [9]) [µg/mL]	MIC (H. influenzae; [10]) [µg/mL]	MIC (H. influenzae; [11]) [µg/mL]	MIC (H. influenzae; [12]) [µg/mL]	MIC (H. influenzae; [13]) [µg/mL]	MIC (H. influenzae; [14]) [µg/mL]	MIC (H. influenzae; [15]) [µg/mL]	MIC (H. influenzae; [16]) [µg/mL]	MIC (H. influenzae; [17]) [µg/mL]	MIC (H. influenzae; [18]) [µg/mL]	MIC (H. influenzae; [19]) [µg/mL]	effect of insertional inactivation of acrB on susceptibility (H. influenzae)	potentiation of LBM415 activity [1]	other results
CCCC[C@H](CN(O)C=O)C(=O)N1CCC[C@H]1C(=O)Nc1ccc(F)c[n+]1[O-] [LBM415]	increases susceptibility	16 (≈ 40.4 µM)	0.25 (≈ 0.631 µM)	32 (≈ 80.7 µM)	0.5 (≈ 1.26 µM)	0.5 (≈ 1.26 µM)	4 (≈ 10.1 µM)	0.25 (≈ 0.631 µM)	0.125 (≈ 0.315 µM)	32 (≈ 80.7 µM)	0.25 (≈ 0.631 µM)	0.25 (≈ 0.631 µM)	32 (≈ 80.7 µM)	1 (≈ 2.52 µM)	16 (≈ 40.4 µM)	0.25 (≈ 0.631 µM)	16 (≈ 40.4 µM)	0.25 (≈ 0.631 µM)	significantly increases susceptibility		MIC (E. coli; E. coli strain NB27006 complemented with the H. influenzae acrAB genes): 32 µg/mL; MIC (E. coli; E. coli strains deficient in AcrAB-ToIC pump function, typical value): ~1 µg/mL; MIC (E. coli; E. coli with native AcrAB-ToIC pump, typical value): ≥ 128 µg/mL; MIC (H. influenzae; strain NB65062 (clinical isolate, hyper-susceptible, acrA deletion), read-out: MIC): ≤ 0.25 µg/mL; MIC (H. influenzae; strain NB65062-CDS0037 (NB65062 complemented for acrA deficiency), read-out: MIC): 8 µg/mL (≈ 20.2 µM); MIC (H. influenzae; strain NB65062-CDS0038 (NB65062 complemented for acrA deficiency), read-out: MIC): 8 µg/mL (≈ 20.2 µM); decrease in susceptibility (H. influenzae; acrR insertionally inactivated in NB65044 (NB65044-CDS0008) versus parent): 2 fold; decrease in susceptibility (H. influenzae; two acrR mutants of NB65044 selected on 8 μg/mL LBM415 versus parent): 8 fold
CN(C)[C@@H]1C(O)=C(C(N)=O)C(=O)[C@@]2(O)C(O)=C3C(=O)c4c(O)cccc4[C@@](C)(O)[C@H]3C[C@@H]12 [TET, tetracycline]			1 (≈ 2.25 µM)		1 (≈ 2.25 µM)	0.5 (≈ 1.13 µM)		0.5 (≈ 1.13 µM)	1 (≈ 2.25 µM)		1 (≈ 2.25 µM)	1 (≈ 2.25 µM)		1 (≈ 2.25 µM)		1 (≈ 2.25 µM)		1 (≈ 2.25 µM)			MIC (H. influenzae; strain NB65044-CDS0008, knockout acrR): 0.5 µg/mL (≈ 1.13 µM); MIC (H. influenzae; strain NB65044-CDS0011 (acrR mutant selected on 8 μg/mL LBM415, stop codon)): 1 µg/mL (≈ 2.25 µM); MIC (H. influenzae; strain NB65044-CDS0014 (acrR mutant selected on 8 μg/mL LBM415, L→P)): 1 µg/mL (≈ 2.25 µM)
O=C(N[C@H](CO)[C@H](O)c1ccc([N+](=O)[O-])cc1)C(Cl)Cl [chloramphenicol]																			unaffected		
COC(=O)[C@H]1[C@H]2C[C@@H]3c4[nH]c5cc(OC)ccc5c4CCN3C[C@H]2C[C@@H](OC(=O)c2cc(OC)c(OC)c(OC)c2)[C@@H]1OC [Reserpine]																				did not potentiate	potentiation of clindamycin [1]: did not potentiate
N=C(N)NCCC[C@H](NC(=O)[C@@H](N)Cc1ccccc1)C(=O)Nc1ccc2ccccc2c1 [MC-207,110] (H-Phe-Arg-βNA)																				potentiation	potentiation of LBM415 [2]: potentiating activity; potentiation of clindamycin [2]: potentiating activity; potentiation of tetracycline [2]: no potentiation; potentiation of clindamycin [1]: potentiate; potentiation of tetracycline (pump non-substrate) [1]: no potentiation
CC[C@H]1OC(=O)[C@H](C)[C@@H](O[C@H]2C[C@@](C)(OC)[C@@H](O)[C@H](C)O2)[C@H](C)[C@@H](O[C@@H]2O[C@H](C)C[C@H](N(C)C)[C@H]2O)[C@](C)(O)C[C@@H](C)C(=O)[C@H](C)[C@@H](O)[C@]1(C)O [ERM, erythromycin]	increases susceptibility	16 (≈ 21.8 µM)	0.25 (≈ 0.341 µM)	16 (≈ 21.8 µM)	0.125 (≈ 0.17 µM)	0.25 (≈ 0.341 µM)	4 (≈ 5.45 µM)	0.25 (≈ 0.341 µM)	0.25 (≈ 0.341 µM)	16 (≈ 21.8 µM)	0.25 (≈ 0.341 µM)	0.125 (≈ 0.17 µM)	8 (≈ 10.9 µM)	0.25 (≈ 0.341 µM)	16 (≈ 21.8 µM)	0.125 (≈ 0.17 µM)	16 (≈ 21.8 µM)	0.125 (≈ 0.17 µM)	increases susceptibility		
